Data on 4 compounds can be found in paper PMC2940852 (Biochemical pharmacology, 2010).

The subject of data set [1] is placental tissue. Put plainly: Placental viability and functional parameters during perfusion. Set-up: species or system human. The note with it: OH-bupropion 470 ng/ml, 4 hours, compared with control placentas.
Data set [2] concerns placental tissue. Put plainly: Metabolism by placental tissue during perfusion. Format: in vitro ADME, human. To be noted: 4 hours of perfusion; maternal and fetal perfusate and placental tissue.
The target of data set [3] is T1, BCRP (Homo sapiens, UniProt Q9UNQ0).
T1 sequence (Q9UNQ0 1-655): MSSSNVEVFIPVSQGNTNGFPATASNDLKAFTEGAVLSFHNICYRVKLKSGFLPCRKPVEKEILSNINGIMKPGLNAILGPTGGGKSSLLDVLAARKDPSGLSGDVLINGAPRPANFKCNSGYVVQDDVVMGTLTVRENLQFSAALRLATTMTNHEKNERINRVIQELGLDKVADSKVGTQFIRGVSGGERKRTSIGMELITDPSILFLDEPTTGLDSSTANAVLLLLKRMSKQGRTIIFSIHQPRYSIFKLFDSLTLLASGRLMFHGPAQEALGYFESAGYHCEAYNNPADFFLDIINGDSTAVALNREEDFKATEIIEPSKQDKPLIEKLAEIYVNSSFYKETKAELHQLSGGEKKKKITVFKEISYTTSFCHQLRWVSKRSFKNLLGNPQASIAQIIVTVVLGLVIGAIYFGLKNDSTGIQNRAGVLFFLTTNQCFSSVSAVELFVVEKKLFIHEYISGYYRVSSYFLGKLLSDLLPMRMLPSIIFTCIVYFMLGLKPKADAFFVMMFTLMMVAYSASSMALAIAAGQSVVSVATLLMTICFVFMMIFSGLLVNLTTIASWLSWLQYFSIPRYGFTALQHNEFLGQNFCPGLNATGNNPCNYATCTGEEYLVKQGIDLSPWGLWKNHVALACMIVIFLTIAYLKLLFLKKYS
To be noted: human placenta brush border membrane IOVs.

In data set [4] the test system is dually-perfused human placental lobule. Put plainly: Transplacental transfer, dual perfusion of human placental lobule. Format: in vitro ADME. To be noted: 4 hours perfusion, closed-closed.
Data set [5] has as its target T2, P-gp (Homo sapiens, UniProt P08183). The note with it: human placenta brush border membrane IOVs.
For data set [6], the system named is dually-perfused human placental lobule. To be noted: human placenta; cited from earlier work.
For data set [7], the target named is T1, BCRP. The data set is described as follows: Stimulation of BCRP ATPase activity. It counts as biochemical. The note with it: insect cell membranes transfected with human BCRP.
Data set [8] addresses T2, P-gp. The data set is described as follows: Stimulation of P-gp ATPase activity. Format: biochemical. The note with it: insect cell membranes transfected with human P-gp.

T2 sequence (P08183 whole entry, the tested form may be a part): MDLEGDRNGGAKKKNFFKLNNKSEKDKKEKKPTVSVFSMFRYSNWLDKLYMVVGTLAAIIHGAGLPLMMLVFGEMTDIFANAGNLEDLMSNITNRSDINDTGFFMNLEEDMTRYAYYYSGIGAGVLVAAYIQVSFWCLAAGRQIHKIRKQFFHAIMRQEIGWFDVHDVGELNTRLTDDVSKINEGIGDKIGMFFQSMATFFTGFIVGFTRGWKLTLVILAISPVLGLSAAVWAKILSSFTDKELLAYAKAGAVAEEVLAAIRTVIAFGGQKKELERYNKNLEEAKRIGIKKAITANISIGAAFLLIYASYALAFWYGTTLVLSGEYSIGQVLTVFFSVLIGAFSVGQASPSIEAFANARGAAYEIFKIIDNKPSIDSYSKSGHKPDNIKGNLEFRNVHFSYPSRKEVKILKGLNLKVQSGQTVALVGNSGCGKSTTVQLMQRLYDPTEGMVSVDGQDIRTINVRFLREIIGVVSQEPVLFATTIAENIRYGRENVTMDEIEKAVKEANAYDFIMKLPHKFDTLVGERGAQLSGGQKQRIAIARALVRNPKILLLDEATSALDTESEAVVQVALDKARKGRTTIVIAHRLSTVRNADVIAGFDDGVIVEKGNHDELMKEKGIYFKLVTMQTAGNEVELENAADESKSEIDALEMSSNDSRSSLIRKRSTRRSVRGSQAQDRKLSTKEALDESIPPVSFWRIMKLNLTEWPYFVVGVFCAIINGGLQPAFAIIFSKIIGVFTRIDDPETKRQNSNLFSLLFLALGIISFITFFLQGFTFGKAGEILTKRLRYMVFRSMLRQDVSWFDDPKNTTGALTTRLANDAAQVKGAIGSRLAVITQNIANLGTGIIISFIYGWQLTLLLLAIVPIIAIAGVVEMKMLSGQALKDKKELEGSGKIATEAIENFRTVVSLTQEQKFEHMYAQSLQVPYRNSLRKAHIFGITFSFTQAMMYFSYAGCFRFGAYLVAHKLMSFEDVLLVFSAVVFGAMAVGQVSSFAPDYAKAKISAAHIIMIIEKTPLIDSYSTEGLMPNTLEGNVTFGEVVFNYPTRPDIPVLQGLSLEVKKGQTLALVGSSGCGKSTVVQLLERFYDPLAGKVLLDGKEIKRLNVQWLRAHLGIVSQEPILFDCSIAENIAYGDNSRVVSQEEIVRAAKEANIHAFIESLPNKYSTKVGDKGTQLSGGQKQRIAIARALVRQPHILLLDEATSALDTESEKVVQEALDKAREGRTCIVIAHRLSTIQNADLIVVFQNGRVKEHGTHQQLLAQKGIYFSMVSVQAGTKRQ

Take `C[C@H]1NC(C)(C)CO[C@]1(O)c1cccc(Cl)c1` [OH-bupropion, hydroxybupropion]: in data set [1], the “Placental viability and functional parameters during perfusion” value is listed as “unchanged”. Besides, in data set [2], the “Biotransformation by placental enzymes during perfusion” value is listed as “without undergoing biotransformation”. Besides, the “Transported substrate of BCRP” value in data set [3] is on record as “not a transported substrate”. Further, in data set [4], the “Fetal circuit concentration as % of initial concentration in maternal circuit” value is on record as 32 ± 3%. The “Concentration in the fetal circuit at the end of the experimental period” value in data set [4] (initial maternal concentration 470 ± 17 ng/ml) is 0.151 ± 0.013 µg/mL. The “Transported substrate of P-gp” value in data set [5] is “not a transported substrate”.

As to `Cc1cc(=O)n(-c2ccccc2)n1C` [antipyrine], the “Placental transfer (freely-diffusible compounds)” value in data set [6] is given as 30–40%.

Consider `CC(NC(C)(C)C)C(=O)c1cccc(Cl)c1` (stereo not shown) [bupropion], for which the “Vmax of stimulation of ATPase activity by BCRP” value in data set [7] amounted to 6 ± 0.8 nmoles Pi/mg protein*min. For the same compound, the “Vmax of stimulation of ATPase activity by P-gp” value in data set [8] was found to be 9.5 ± 1.6 nmoles Pi/mg protein*min.

For `CN1CCC[C@H]1c1cccnc1` [nicotine], in data set [6], the “Placental transfer (freely-diffusible compounds)” value is 30–40%.
